Reference: PMC5321434, “Dihydrobenz[e][1,4]oxazepin-2(3H)-ones, a new anthelmintic chemotype immobilising whipworm and reducing infectivity in vivo” (PLoS Neglected Tropical Diseases, 2017)

System: adult T. muris
Test: Ex vivo adult T. muris automated motility assay (primary/secondary screen at 100 μM and dose-response)
Design: species or system Trichuris muris
Details: for PRIMARY_SCREEN_MINUS_LOG_FOLD_CHANGE_MOVEMENT: primary screen; for PRIMARY_SCREEN_MINUS_LOG_FOLD_CHANGE_MOVEMENT / SECONDARY_SCREEN_MINUS_LOG_FOLD_CHANGE_MOVEMENT: adult T. muris motility; for SECONDARY_SCREEN_MINUS_LOG_FOLD_CHANGE_MOVEMENT: secondary screen
Method: Severe combined immune deficiency (SCID) mice were bred in the Biological Services Facility at the University of Manchester. Both male and female SCID mice were infected with a high dose of 200 infective embryonated T. muris eggs via oral gavage. At day 35 post-infection, groups of 5 mice were killed and their […] colons removed. Guts were opened longitudinally, washed with pre-warmed Roswell Park Memorial Institute (RPMI) 1640 media supplemented with penicillin (500U/ml) and streptomycin (500μg/ml) and adult T. muris worms gently removed using fine forceps. Worms removed from SCID mice were maintained in RPMI-1640 media supplemented with penicillin (500U/ml) and streptomycin (500μg/ml) at approximately 37°C and studied on the same day. Using fine forceps, individual live worms were placed into 96 well plates containing 75μl of RPMI-1640 medium supplemented with penicillin (500U/ml) and streptomycin (500μg/ml) plus 1% final concentration of DMSO or compound dissolved in DMSO. In the primary screen the test compound concentration was 100μM. Plates were then incubated at 37°C, 5% CO2, and motility was analysed after 24 hours. Worm movement was quantified using an automated motility assay. This system gives an estimate of worm movement in each well by thresholding and quantifying pixel intensity variance over time. An earlier version of this system has been previously described. One adult T. muris worm was used per well, with one well per compound in each replicate of the primary screen. The primary screen was repeated each week for a period of four weeks giving four independent biological replicates from separate parasite batches for each compound. Dose-response curves were calculated with the four factor log-logistic model using the R package drc. The primary screen was carried out at 100μM final concentration. Assay plates were assigned unique IDs and statistical analysis was performed without knowledge of compound identities using R scripts. Once hit wells were identified, well/plate positions were mapped to compound identities using DataWarrior [28]. […] Compounds identified as having encouraging activity from the DMSO solution samples were then resynthesized for confirmatory testing.

[1] = combined primary and secondary screen minus log fold change in movement, adult T. muris, 100 μM

Row | SMILES | COMBINED_SCREEN_ACTIVITY [1] | PRIMARY_SCREEN_MINUS_LOG_FOLD_CHANGE_MOVEMENT (100 μM) | SECONDARY_SCREEN_MINUS_LOG_FOLD_CHANGE_MOVEMENT (100 μM) | COMBINED_SCREEN_ACTIVITY (adult T. muris motility screen at 100 μM, combines primary and secondary screen minus log fold change in movement (mean where both are given))
1 | COCCN1C(=O)COCc2ccc(-c3ccc(F)cc3OC)cc21 [Compound 77] | 0.2033 | 0.2033 |  | 
2 | COCCN1C(=O)COCc2ccc(-c3ccccc3C)cc21 [Compound 36] | -1.658 | -1.658 |  | 
3 | COc1ccc(F)cc1-c1ccc2c(c1)COCC(=O)N2CCc1ccccc1 [Compound 145] | -1.739 | -1.739 |  | 
4 | COc1ccccc1-c1ccc2c(c1)N(Cc1ccccc1)C(=O)COC2 [Compound 96] | -0.4906 | -0.4906 |  | 
5 | Cc1ccc(CN2C(=O)COCc3cc(-c4cnn(C)c4)ccc32)cc1 [Compound 82] | 0.6432 | 0.6432 |  | 
6 | O=C1COCc2ccc(Br)cc2N1Cc1ccc(C(F)(F)F)cc1 [Compound 160] | 8.379 | 8.379 |  | 
7 | O=C1COCc2ccc(-c3ccccc3)cc2N1CC1CC1 [Compound 24] | 7.227 | 7.227 |  | 
8 | COc1ccccc1-c1cccc2c1COCC(=O)N2Cc1ccccc1 [Compound 94] | 10.5493 | 10.5493 |  | 
9 | O=C1COCc2cc(Br)ccc2N1CC1CCCCC1 [Compound 64] | 3.118 | 3.494 | 2.742 | 
10 | COc1cccc(CN2C(=O)COCc3ccc(Br)cc32)c1 [Compound 104] | -1.975 | -1.975 |  | 
11 | COCCN1C(=O)COCc2ccc(-c3cccc(C(F)(F)F)c3)cc21 [Compound 108] | -0.2552 | -0.2552 |  | 
12 | O=C1COCc2ccccc2N1Cc1ccccc1Cl [Compound 21] | -1.647 | -1.647 |  | 
13 | CN1C(=O)COCc2c(-c3cc(F)cc(Cl)c3)cccc21 [Compound 34] | -1.392 | -1.392 |  | 
14 | CCN(CC)C(=O)c1cccc(-c2ccc3c(c2)N(Cc2ccccc2)C(=O)COC3)c1 [Compound 187] |  | 7.09 | 12.6188 | 9.854
15 | COCCN1C(=O)COCc2ccc(-c3cc(F)cc(Cl)c3)cc21 [Compound 84] | 0.4605 | 0.4605 |  | 
16 | COCCN1C(=O)COCc2ccc(Br)cc21 [Compound 31] | -1.486 | -1.486 |  | 
17 | COCCN1C(=O)COCc2ccc(-c3ccc(F)c(Cl)c3)cc21 [Compound 83] | 1.936 | 1.936 |  | 
18 | N#Cc1cccc(-c2ccc3c(c2)N(CCN2CCOCC2)C(=O)COC3)c1 [Compound 132] | -2.183 | -2.183 |  | 
19 | O=C1COCc2ccc(-c3cccnc3)cc2N1CCc1ccccc1 [Compound 74] | -0.776 | -0.776 |  | 
20 | O=C1COCc2cc(-c3cccc(CO)c3)ccc2N1Cc1cc(F)cc(F)c1 [Compound 154] | -1.197 | -1.197 |  | 
21 | COCCN1C(=O)COCc2ccc(-c3cccc(C(C)C)c3)cc21 [Compound 66] | 7.026 | 7.026 |  | 
